Experimental data from patent US7749996B2, “Heterotricyclic metalloprotease inhibitors” (Alantos Pharmaceutical Holdings, Inc., priority 2006, dated 2010).

How the values were obtained:
[1] = target: T1, catalytic domain of MMP-13 enzyme (Homo sapiens, UniProt P45452); assay: Assay for determining MMP-13 inhibition (fluorescent substrate); assay type: biochemical; conditions: Table 1, activity group
T1 construct: stock solution of catalytic domain of MMP-13 enzyme (produced by Alantos or commercially available from Invitek (Berlin), Cat.# 30100812); purchased Invitek (Berlin) 30100812
Description: (§1) The typical assay for MMP-13 activity is carried out in assay buffer comprised of 50 mM Tris, pH 7.5, 150 mM NaCl, 5 mM CaCl2 and 0.05% Brij-35. Different concentrations of tested compounds are prepared in assay buffer in 50 μL aliquots. […] The mixture of enzyme and compound in assay buffer is thoroughly mixed and incubated for 10 min at room temperature. […] The time-dependent increase in fluorescence is measured at the 320 nm excitation and 390 nm emission by automatic plate multireader. The IC50 values are calculated from the initial reaction rates.

activated MMP-8 enzyme = target: T2, activated MMP-8 enzyme (Homo sapiens, UniProt P22894); assay: Assay for determining MMP-8 inhibition (fluorescent substrate); assay type: biochemical; conditions: Table 2, activity group
T2 construct: purchased Calbiochem 444229
Description: as §1, with “MMP-8” for “MMP-13”, “37° C.” for “room temperature.”, “by an” for “by”, “multireader at 37° C.” for “multireader.”

T2 sequence (P22894 101-467): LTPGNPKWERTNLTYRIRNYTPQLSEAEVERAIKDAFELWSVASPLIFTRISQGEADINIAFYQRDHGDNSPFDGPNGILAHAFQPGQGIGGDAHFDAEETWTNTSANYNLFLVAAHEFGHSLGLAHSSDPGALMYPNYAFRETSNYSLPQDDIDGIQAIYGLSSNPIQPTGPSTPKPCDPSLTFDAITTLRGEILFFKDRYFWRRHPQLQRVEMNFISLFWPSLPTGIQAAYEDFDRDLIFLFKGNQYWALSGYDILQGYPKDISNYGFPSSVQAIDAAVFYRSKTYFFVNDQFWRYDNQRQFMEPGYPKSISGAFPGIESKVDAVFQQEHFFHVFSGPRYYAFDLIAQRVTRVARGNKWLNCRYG

SMILES	IC50 [1]	IC50 (activated MMP-8 enzyme)
O=C1COc2cc(CNC(=O)c3nc4sc5ccccc5c4c(=O)[nH]3)ccc2N1 [2/24]	100 to 20000 nM	
O=C1COc2cc(CNC(=O)c3nc4sc5c(c4c(=O)[nH]3)CCCC5)ccc2N1 [2/34]	100 to 20000 nM	
O=C1COc2ccc(CNC(=O)c3nc4sc5c(c4c(=O)[nH]3)C3CCN5CC3)cc2N1 [2/89]	< 100 nM	
Nc1c(N2CCc3ccc(CNC(=O)c4nc5sc6c(c5c(=O)[nH]4)C4CCN6CC4)cc3C2)c(=O)c1=O [2/90]	< 100 nM	
Cc1cc(CNC(=O)c2nc3sc4c(c3c(=O)[nH]2)CCS(=O)(=O)C4)ccc1F [2/130]	100 to 20000 nM	250 to 20000 nM
CC(C)(C)c1ccc2c(c1)sc1nc(C(=O)NCc3ccc4c(c3)NC(=O)CO4)[nH]c(=O)c12 [2/143]	100 to 20000 nM	
CC(C)(C)c1ccc2c(c1)sc1nc(C(=O)NCc3ccc4c(c3)CN(c3c(N)c(=O)c3=O)CC4)[nH]c(=O)c12 [2/144]	100 to 20000 nM	
Nc1c(N2CCc3ccc(CNC(=O)c4nc5sc6c(c5c(=O)[nH]4)CCC(c4ccccc4)C6)cc3C2)c(=O)c1=O (stereo not shown) [2/146]	100 to 20000 nM	
C#CCNC(=O)C1CCc2sc3nc(C(=O)NCc4ccc5c(c4)NC(=O)CO5)[nH]c(=O)c3c21 (stereo not shown) [2/223]		< 250 nM
COC(=O)C1Cc2sc3nc(C(=O)NCc4ccc5c(c4)CN(c4c(N)c(=O)c4=O)CC5)[nH]c(=O)c3c2C1 (stereo not shown) [2/230]		< 250 nM
CCNC(=O)CC1CCCc2sc3nc(C(=O)NCc4ccc5c(c4)NC(=O)CO5)[nH]c(=O)c3c21 (stereo not shown) [2/269]		< 250 nM
O=C(NCC1CC1)c1nc2sc3c(c2c(=O)[nH]1)CCC3 [2/291]	100 to 20000 nM	
CC(C)NC(=O)c1nc2sc3c(c2c(=O)[nH]1)CCC3 [2/294]	100 to 20000 nM	
CS(=O)(=O)c1ccc(CNC(=O)c2nc3sc4c(c3c(=O)[nH]2)CCC4)cc1 [2/302]	100 to 20000 nM	
O=C(c1nc2sc3c(c2c(=O)[nH]1)CCC3)N1CC[C@H]2CCCC[C@@H]2C1 [2/305]	100 to 20000 nM	
COC(=O)C1SCCN1C(=O)c1nc2sc3c(c2c(=O)[nH]1)CCC3 (stereo not shown) [2/307]	100 to 20000 nM	
C[C@@H](NC(=O)c1nc2sc3c(c2c(=O)[nH]1)CCC3)c1ccc(F)cc1 [2/319]	100 to 20000 nM	
NC(=O)[C@@H]1CCC[C@@H]1NC(=O)c1nc2sc3c(c2c(=O)[nH]1)CCC3 [2/323]	100 to 20000 nM	

SMILES	IC50 [1]	IC50 (activated MMP-8 enzyme)
NC(=O)[C@@H](NC(=O)c1nc2sc3c(c2c(=O)[nH]1)CCC3)c1ccccc1 [2/327]	100 to 20000 nM	
O=C(NC(c1ccccc1)c1ccccn1)c1nc2sc3c(c2c(=O)[nH]1)CCC3 (stereo not shown) [2/328]	100 to 20000 nM	
O=C(NCc1csc2ccccc12)c1nc2sc3c(c2c(=O)[nH]1)CCC3 [2/333]	100 to 20000 nM	
O=C(NCc1ccsc1)c1nc2sc3c(c2c(=O)[nH]1)CCC3 [2/344]	100 to 20000 nM	
O=C(CCc1ccc2sccc2c1)c1nc2sc3c(c2c(=O)[nH]1)CCC3 [2/352]	100 to 20000 nM	
O=C(NCc1ccc(CN2CCOCC2)cc1)c1nc2sc3c(c2c(=O)[nH]1)CCC3 [2/355]	100 to 20000 nM	
O=C(NCc1ccc(C(F)(F)F)nc1)c1nc2sc3c(c2c(=O)[nH]1)CCC3 [2/368]	100 to 20000 nM	
O=C(NCc1ccc2c(c1)OCO2)c1nc2sc3c(c2c(=O)[nH]1)CCC3 [2/382]		250 to 20000 nM
COc1cccc(CNC(=O)c2nc3sc4c(c3c(=O)[nH]2)CCC4)c1 [2/387]		250 to 20000 nM
COC(=O)C1(CNC(=O)c2nc3sc4c(c3c(=O)[nH]2)CCC4)CCCCC1 [2/526]	< 100 nM	
O=C(NCc1cccc(N2CCOCC2)c1)c1nc2sc3c(c2c(=O)[nH]1)CCC3 [2/529]		250 to 20000 nM
NS(=O)(=O)c1ccc(CCNC(=O)c2nc3sc4c(c3c(=O)[nH]2)CCC4)cc1 [2/530]	100 to 20000 nM	
O=C1COc2ccc(CNC(=O)c3nc4sc5c(c4c(=O)[nH]3)CCNCC5)cc2N1 [15/3]		250 to 20000 nM
O=C1COc2ccc(CNC(=O)c3nc4sc5c(c4c(=O)[nH]3)CCCNC5)cc2N1 [15/4]	< 100 nM	
O=C1COc2ccc(CNC(=O)c3nc4sc5c(c4c(=O)[nH]3)CNCC5)cc2N1 [15/5]	< 100 nM	
O=C1COc2ccc(CNC(=O)c3nc4sc5c(c4c(=O)[nH]3)CCCSC5)cc2N1 [Example 2/218]		< 250 nM
CC(=O)N1Cc2sc3nc(C(=O)NCc4ccc5c(c4)NC(=O)CO5)[nH]c(=O)c3c2C1 [Example 42]		250 to 20000 nM
O=C1COc2ccc(CNC(=O)c3nc4sc5c(c4c(=O)[nH]3)CN(Cc3ccccc3)C5)cc2N1 [Example 43/1]		< 250 nM

Next, values leading:

IC50 [1]	IC50 (activated MMP-8 enzyme)	SMILES
< 100 nM	< 250 nM	O=C1COc2ccc(CNC(=O)c3nc4sc5ccccc5c4c(=O)[nH]3)cc2N1 [2/25]
< 100 nM		CN1CCc2c(sc3nc(C(=O)NCc4ccc5c(c4)NC(=O)CO5)[nH]c(=O)c23)C1 [2/29]
< 100 nM	< 250 nM	O=C1COc2ccc(CNC(=O)c3nc4sc5c(c4c(=O)[nH]3)CCCC5)cc2N1 [2/33]
< 100 nM	< 250 nM	Nc1c(N2CCc3ccc(CNC(=O)c4nc5sc6c(c5c(=O)[nH]4)CCC6)cc3C2)c(=O)c1=O [2/52]
< 100 nM		Nc1c(N2CCc3ccc(CNC(=O)c4nc5sc6ccccc6c5c(=O)[nH]4)cc3C2)c(=O)c1=O [2/67]
< 100 nM	< 250 nM	CC(=O)N1CCc2c(sc3nc(C(=O)NCc4ccc5c(c4)NC(=O)CO5)[nH]c(=O)c23)C1 [2/94]
< 100 nM	< 250 nM	CCOC(=O)C1CCc2sc3nc(C(=O)NCc4ccc5c(c4)NC(=O)CO5)[nH]c(=O)c3c21 (stereo not shown) [2/113]
< 100 nM	< 250 nM	CCOC(=O)C1CCc2sc3nc(C(=O)NCc4ccc5c(c4)CN(c4c(N)c(=O)c4=O)CC5)[nH]c(=O)c3c21 (stereo not shown) [2/114]
< 100 nM	< 250 nM	O=C1COc2ccc(CNC(=O)c3nc4sc5c(c4c(=O)[nH]3)CCCCC5)cc2N1 [2/117]
< 100 nM	< 250 nM	Nc1c(N2CCc3ccc(CNC(=O)c4nc5sc6c(c5c(=O)[nH]4)CCCCC6)cc3C2)c(=O)c1=O [2/118]
< 100 nM		O=C1COc2ccc(CNC(=O)c3nc4sc5c(c4c(=O)[nH]3)CCCS5)cc2N1 [2/119]
< 100 nM		Nc1c(N2CCc3ccc(CNC(=O)c4nc5sc6c(c5c(=O)[nH]4)CCCS6)cc3C2)c(=O)c1=O [2/120]
< 100 nM	< 250 nM	O=C1COc2ccc(CNC(=O)c3nc4sc5c(c4c(=O)[nH]3)CCS5)cc2N1 [2/121]
< 100 nM	< 250 nM	Nc1c(N2CCc3ccc(CNC(=O)c4nc5sc6c(c5c(=O)[nH]4)CCS6)cc3C2)c(=O)c1=O [2/122]
< 100 nM	< 250 nM	O=C1COc2ccc(CNC(=O)c3nc4sc5c(c4c(=O)[nH]3)CCCCCC5)cc2N1 [2/125]
< 100 nM	< 250 nM	Nc1c(N2CCc3ccc(CNC(=O)c4nc5sc6c(c5c(=O)[nH]4)CCCCCC6)cc3C2)c(=O)c1=O [2/126]
< 100 nM	250 to 20000 nM	COc1cccc(CNC(=O)c2nc3sc4c(c3c(=O)[nH]2)CCS(=O)(=O)C4)c1 [2/129]

IC50 [1]	IC50 (activated MMP-8 enzyme)	SMILES
< 100 nM	< 250 nM	CC1SCc2sc3nc(C(=O)NCc4ccc5c(c4)NC(=O)CO5)[nH]c(=O)c3c21 (stereo not shown) [2/131]
< 100 nM		O=C1COc2ccc(CNC(=O)c3nc4sc5c(c4c(=O)[nH]3)CCC(c3ccccc3)C5)cc2N1 (stereo not shown) [2/145]
< 100 nM	< 250 nM	O=C1COc2ccc(CNC(=O)c3nc4sc5c(c4c(=O)[nH]3)CCOC5)cc2N1 [2/152]
< 100 nM	< 250 nM	Nc1c(N2CCc3ccc(CNC(=O)c4nc5sc6c(c5c(=O)[nH]4)CCOC6)cc3C2)c(=O)c1=O [2/153]
< 100 nM	< 250 nM	O=C1COc2ccc(CNC(=O)c3nc4sc5c(c4c(=O)[nH]3)C(C(=O)NCc3ccccc3)CC5)cc2N1 (stereo not shown) [2/167]
< 100 nM	< 250 nM	COC(=O)c1ccc(CNC(=O)C2CCc3sc4nc(C(=O)NCc5ccc6c(c5)NC(=O)CO6)[nH]c(=O)c4c32)cc1 (stereo not shown) [2/169]
< 100 nM	< 250 nM	CS(=O)(=O)c1ccc(CNC(=O)C2CCc3sc4nc(C(=O)NCc5ccc6c(c5)NC(=O)CO6)[nH]c(=O)c4c32)cc1 (stereo not shown) [2/170]
< 100 nM	250 to 20000 nM	CN(C)C(=O)C1CCc2sc3nc(C(=O)NCc4ccc5c(c4)NC(=O)CO5)[nH]c(=O)c3c21 (stereo not shown) [2/173]
< 100 nM	< 250 nM	Cc1ccc(CNC(=O)C2CCc3sc4nc(C(=O)NCc5ccc6c(c5)NC(=O)CO6)[nH]c(=O)c4c32)cc1 (stereo not shown) [2/174]
< 100 nM		Nc1c(N2CCc3ccc(CNC(=O)c4nc5sc6c(c5c(=O)[nH]4)CCCSC6)cc3C2)c(=O)c1=O [2/219]
< 100 nM		O=C1COc2ccc(CNC(=O)c3nc4cc5c(cc4c(=O)[nH]3)CCC5)cc2N1 [2/246]
< 100 nM		O=C(NCc1cccnc1)c1nc2sc3c(c2c(=O)[nH]1)CCC3 [2/309]
< 100 nM		O=C(NCc1ccc(F)c(OC(F)(F)F)c1)c1nc2sc3c(c2c(=O)[nH]1)CCC3 [2/332]
< 100 nM		O=C(NCc1ccc2occc2c1)c1nc2sc3c(c2c(=O)[nH]1)CCC3 [2/354]
< 100 nM		O=C(NCc1cccc(N2CCOCC2)c1)c1nc2sc3c(c2c(=O)[nH]1)CCC3 [2/359]
< 100 nM		NS(=O)(=O)c1ccc(CNC(=O)c2nc3sc4c(c3c(=O)[nH]2)CCC4)s1 [2/367]
